Laboratory results taken from patent publication US7344851B2, “Anticancer agents based on prevention of protein prenylation” (Arizona Biomedical Research Commission, priority 1998, dated 2008).
Blank lines part the entries; values can stand above or below the compound they belong to.

Assays:
Type in all cases: biochemical
human recombinant FTase [1] = molecular target: T1, human recombinant FTase (Homo sapiens, UniProt P49354+P49356); assay: FTase inactivation, fluorescence assay of farnesylation of Ds-GCVLS after preincubation with inactivator; conditions: for inactivation of FTase (result in words): preincubation of FTase with compound, fluorescence assay
T1 construct: gift from Professor Patrick Casey, Duke University
Protocol: For example, the catalytic ability of FTase was monitored by an assay procedure in which FTase transferred the farnesyl group from FPP to a peptide substitute for Ras. The peptide substitute for Ras in this assay had structural elements in common with Ras, in particular a sequence of four amino acids cysteinyl-valyl-lysyl-serine (cys-val-lys-ser).
Inactivation of the enzyme FTase occurred when the FTase was preincubated with phenylglyoxal monohydrate, as evidenced by (1) a decrease in enzyme activity with increasing time of preincubation with phenylglyoxal monohydrate; and (2) a decrease in enzyme activity with increasing concentration of phenylglyoxal monohydrate. Because of interference of phenylglyoxal monohydrate with the fluorescence assay used, phenylglyoxal monohydrate was removed from the FTase preincubation mixture by ultrafiltration prior to the assay being performed.
FTase assay The fluoresence assay conditions were adapted from a published method. The FTase assay consisted of the measurement of the rate of FTase-catalyzed farnesylation of the fluorescent pentapeptide Ds-GCVLS. Upon farnesylation of the cysteine, the fluoresence emission at =505 nm of the dansyl group is enhanced due to the proximity of the hydrophobic isoprenoid group. Enzyme activity (approximately 60 nM FTase) was monitored at saturating substrate concentrations (10 M farnesyl pyrophosphate, ammonium salt, prepared by successive dilutions of a commercial 2.3 mM solution in methanol:10 mM aqueous NH4OH (7:3) into assay buffer, and 1.0 M Ds-GCVLS) by measurement of the increase in fluorescence emission observed at =505 nm as FTase farnesylated Ds-GCVLS for a period of 10 min. The assay buffer was selected for unreactivity toward PGO: 50 mM NaHEPES, 5 mM DTT, 5 mM MgCl2, 10 μM ZnCl2, and 0.2% n-octyl-β-D-glucopyranoside, pH 7.5. Fluorescence emission was measured with a JASCO FP-77 spectrofluorimeter fitted with a temperature-controlled cuvette holder connected to a 30 C. constant temperature bath. All fluoresence assays were conducted in a 4 mm 4 mm quartz cuvette with excitation at 340 nm.
Inactivation of FTase by PGO FTase was incubated at 30 C in the presence and absence of PGO at various concentrations in 50 mM NaHEPES, 5 mM MgCl2, 10 μM ZnCl2, and 0.2% n-octyl-β-D-glucopyranoside, pH 7.5 (i.e., assay buffer without DTT). Periodically, aliquots of the FTase-PGO reaction mixture were removed and assayed for FTase activity. Because of interference of PGO with the fluorometric assay, the aliquot was first subjected to solvent exchange by size exclusion membrane concentration to remove PGO. The solvent exchange utilized Microcon (Millipore Co.) 30 kD molecular weight cutoff microconcentrators. This also served to stop further inactivation of the enzyme by PGO. A 100-L aliquot of FTase-PGO reaction mixture was pipetted into a Microcon concentrator, which was centrifuged at 12,000 RPM for 8 min at 4 C. The concentrate was resuspended in […] of assay buffer, and centrifugation was repeated. The final concentrate was resuspended in 90 L of assay buffer, and the resulting solution was recovered by inversion of the concentrator and centrifugation at 3500 RPM for 3 min at 4 C. The solution was then assayed for FTase activity as described above. A control was handled as above, except that PGO was omitted from the incubation mixture.

human recombinant FTase [2] = molecular target: T1, human recombinant FTase; assay: as above
human recombinant FTase [3] = molecular target: T1, human recombinant FTase; assay: FPP protection of FTase against inactivation by PGO; conditions: FPP at various concentrations 2 min, then 10 mM PGO for 30 min at 30° C.; FIG. 3
Protocol: FIG. 3. Farnesyl pyrophosphate protection of FTase from inactivation by PGO. Points are determined by 100×(FTase activity after incubation with FPP and PGO)/(FTase activity after incubation with FPP without PGO). Assays were carried out after removal of FPP and PGO with a high molecular weight cutoff microconcentrator. Each point is the average of duplicate determinations.
FPP protection of FTase against inactivation by PGO FTase was treated with FPP at various concentrations in assay buffer without DTT for 2 min at 30° C. prior to incubation of the mixture with 10 mM PGO for 30 min at 30° C. The control was incubated with FPP at the corresponding concentration for the full length of time, but without PGO. The mixtures were subsequently subjected to microconcentration and assay, as described above.

SMILES: CCC(=O)C(C)=O [2,3-pentanedione]
inactivation of FTase (result in words) (human recombinant FTase [1]): rapidly inactivated FTase | FTase activity, % of the initial control value (human recombinant FTase [2]; 17 mM, approximately 30 minutes of incubation, 50 mM sodium borate, pH 7.5, FTase 15 nM, Microcon step omitted): 69% | FTase activity, % of the initial control value (human recombinant FTase [2]; 33 mM, approximately 30 minutes of incubation, 50 mM sodium borate, pH 7.5, FTase 15 nM, Microcon step omitted): 55% | FTase activity, % of the initial control value (human recombinant FTase [2]; 66 mM, approximately 30 minutes of incubation, 50 mM sodium borate, pH 7.5, FTase 15 nM, Microcon step omitted): 37%

inactivation of FTase (result in words) (human recombinant FTase [1]): rapidly inactivated FTase | FTase activity, % of the initial control value (human recombinant FTase [2]; 23 μM, 30 minutes of incubation, FTase 15 nM, 4.6% DMSO): 68% | FTase activity, % of the initial control value (human recombinant FTase [2]; 93 μM, 30 minutes of incubation, FTase 15 nM, 4.6% DMSO): 11%
SMILES: O=CC(=O)c1ccc(-c2ccc(C(=O)C=O)cc2)cc1 [4,4′-biphenyldiglyoxaldehyde]

FTase activity following preincubation with inactivator (human recombinant FTase [1]; 10 mM PGO for 10 min, PGO removed by microconcentrator, FIG. 1): virtual absence of enzyme activity | rate of inactivation of FTase (human recombinant FTase [1]; 10 mM PGO, compared with 20 mM, FIG. 2): slower but still quite rapid | inactivation of FTase (result in words) (human recombinant FTase [1]; monohydrate): rapidly inactivated | rate of inactivation of FTase (human recombinant FTase [2]; 5 mM PGO, FIG. 2): the rate of inactivation was reduced
SMILES: O=CC(=O)c1ccccc1 [PGO, phenylglyoxal monohydrate]
effect of preincubation of FTase with FPP on inactivation by PGO (human recombinant FTase [3]): decreased the ability of PGO to inactivate FTase | inactivation of FTase (result in words) (human recombinant FTase [1]; listed as phenylglyoxal monohydrate, monohydrate): rapid and virtually complete inactivation

time of incubation until FTase activity was lost (human recombinant FTase [1]; 35 mM 2-oxododecanal, 5% DMSO, data not shown): ≤ 2 min | inactivation of FTase (result in words) (human recombinant FTase [1]): rapidly inactivated FTase
SMILES: CCCCCCCCCCC(=O)C=O [2-oxododecanal]

inactivation of FTase (result in words) (human recombinant FTase [1]): rapidly inactivated FTase | FTase activity, % of the initial control value (human recombinant FTase [2]; 17 μM, 30 minutes of incubation, FTase 15 nM, 4.6% DMSO, Microcon step omitted): 38% | FTase activity, % of the initial control value (human recombinant FTase [2]; 68 μM, 30 minutes of incubation, FTase 15 nM, 4.6% DMSO, Microcon step omitted): 18% | FTase activity, % of the initial control value (human recombinant FTase [2]; 171 μM, 30 minutes of incubation, FTase 15 nM, 4.6% DMSO, Microcon step omitted): 16%
SMILES: CC(=O)C(=O)CC(C)CCC=C(C)C (stereo not shown) [5,9-dimethyl-8-decene-2,3-dione]

inactivation of FTase (result in words) (human recombinant FTase [1]): rapidly inactivated FTase | FTase activity, % of the initial control value (human recombinant FTase [2]; 7 μM, 30 minutes of incubation, FTase 15 nM, 0.46% DMSO, Microcon step omitted): 75% | FTase activity, % of the initial control value (human recombinant FTase [2]; 28 μM, 30 minutes of incubation, FTase 15 nM, 0.46% DMSO, Microcon step omitted): 34% | FTase activity, % of the initial control value (human recombinant FTase [2]; 141 μM, 30 minutes of incubation, FTase 15 nM, 0.46% DMSO, Microcon step omitted): 22%
SMILES: CCCCCCCCCCCCCCCC(=O)OC[C@H](O)[C@H]1OC(=O)C(=O)C1=O [dehydroascorbic acid 6-palmitate]

inactivation of FTase (result in words) (human recombinant FTase [1]): did not inactivated FTase | FTase activity compared with the control (human recombinant FTase [2]; 23 μM, 120 minutes of incubation, FTase 15 nM, 4.6% DMSO): the same as the control
SMILES: CC(=O)c1ccc(-c2ccc(C(C)=O)cc2)cc1 [4,4′-diacetylbiphenyl, reference compound]
